Measured values: ChEMBL document CHEMBL1201861, “Genomics of Drug Sensitity in Cancer screening data, Wellcome Trust Sanger Institute”

Key:
[1] = tested on: COR-L279; test: SANGER: Inhibition of human COR-L279 cell growth in a cell viability assay.; assay type: functional, cell-based; conditions: Homo sapiens, COR-L279
[2] = tested on: CP66-MEL; test: cells; assay type: functional, cell-based; conditions: Homo sapiens;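 further: growth inhibition of CP66-MEL cells determined in a cell viability assay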
Description: SANGER: Inhibition of human CP66-MEL cell growth in a cell viability assay.

[3] = tested on: Ca9-22; test: cells; assay type: functional, cell-based; conditions: Homo sapiens;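 further: growth inhibition of Ca9-22 cells, read out with a cell viability assay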
Description: SANGER: Inhibition of human Ca9-22 cell growth in a cell viability assay.

[4] = tested on: DU-145; test: cells; assay type: functional, cell-based; conditions: Homo sapiens
Description: SANGER: Inhibition of human DU-145 cell growth in a cell viability assay.

[5] = tested on: EC-GI-10; test: cells; assay type: functional, cell-based, Homo sapiens; conditions: Homo sapiens, EC-GI-10
Description: SANGER: Inhibition of human EC-GI-10 cell growth in a cell viability assay.

[6] = tested on: ECC4; test: cells; assay type: functional, cell-based, Homo sapiens; conditions: Homo sapiens, ECC4;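 further: growth inhibition of ECC4 cells, read out with a cell viability assay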
Description: SANGER: Inhibition of human ECC4 cell growth in a cell viability assay.

[7] = tested on: EVSA-T; test: cells; assay type: functional, cell-based, Homo sapiens; conditions: Homo sapiens, EVSA-T;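 further: growth inhibition of EVSA-T cells, read out with a cell viability assay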
Description: SANGER: Inhibition of human EVSA-T cell growth in a cell viability assay.

[8] = tested on: G-361; test: cells; assay type: functional, cell-based; conditions: Homo sapiens
[9] = tested on: GAMG; test: cells; assay type: functional, cell-based; conditions: Homo sapiens;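 further: cell growth inhibition measured by a viability assay in the GAMG human cell line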
Description: SANGER: Inhibition of human GAMG cell growth in a cell viability assay.

[10] = tested on: H4; test: cells; assay type: functional, cell-based; conditions: Homo sapiens
Description: SANGER: Inhibition of human H4 cell growth in a cell viability assay.

[11] = tested on: HCC1599; test: cells; assay type: functional, cell-based, Homo sapiens; conditions: Homo sapiens, HCC1599;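 further: growth inhibition of HCC1599 cells, read out in a cell viability assay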
Description: SANGER: Inhibition of human HCC1599 cell growth in a cell viability assay.

[12] = tested on: HCC1937; test: cells; assay type: functional, cell-based; conditions: Homo sapiens;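 further: growth inhibition measured with a cell viability read-out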
Description: SANGER: Inhibition of human HCC1937 cell growth in a cell viability assay.

[13] = tested on: HCC38; test: cells; assay type: functional, cell-based; conditions: Homo sapiens;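 further: cell viability assay on the human HCC38 cell line, with IC50 marking the concentration that inhibits cell growth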
Description: SANGER: Inhibition of human HCC38 cell growth in a cell viability assay.

[14] = tested on: HGC-27; test: cells; assay type: functional, cell-based; conditions: Homo sapiens;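 further: growth inhibition of human HGC-27 cells, read out in a cell viability assay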
Description: SANGER: Inhibition of human HGC-27 cell growth in a cell viability assay.

[15] = tested on: HOP-92; test: cells; assay type: functional, cell-based; conditions: Homo sapiens;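 further: cell viability readout, with IC50 reflecting inhibition of HOP-92 cell growth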
Description: SANGER: Inhibition of human HOP-92 cell growth in a cell viability assay.

[16] = tested on: HOS; test: cells; assay type: functional, cell-based; conditions: Homo sapiens;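 further: growth inhibition of human HOS cells, read out with a cell viability assay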
Description: SANGER: Inhibition of human HOS cell growth in a cell viability assay.

[17] = tested on: HSC-3; test: cells; assay type: functional, cell-based; conditions: Homo sapiens
Description: SANGER: Inhibition of human HSC-3 cell growth in a cell viability assay.

[18] = tested on: HTC-C3; test: cells; assay type: functional, cell-based; conditions: Homo sapiens;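 further: inhibition of cell growth, read out with a cell viability assay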
Description: SANGER: Inhibition of human HTC-C3 cell growth in a cell viability assay.

[19] = tested on: HuO9; test: cells; assay type: functional, cell-based; conditions: Homo sapiens;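 further: growth inhibition of HuO9 cells, read out with a cell viability assay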
Description: SANGER: Inhibition of human HuO9 cell growth in a cell viability assay.

[20] = tested on: KMS-12-PE; test: cells; assay type: functional, cell-based, Homo sapiens; conditions: Homo sapiens, KMS-12-PE;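 further: growth inhibition of human KMS-12-PE cells, measured with a cell viability assay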
Description: SANGER: Inhibition of human KMS-12-PE cell growth in a cell viability assay.

[21] = tested on: LC-1F; test: cells; assay type: functional, cell-based, Homo sapiens; conditions: Homo sapiens, LC-1F;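 further: growth inhibition of human LC-1F cells, read out with a cell viability assay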
Description: SANGER: Inhibition of human LC-1F cell growth in a cell viability assay.

[22] = tested on: LC4-1; test: cells; assay type: functional, cell-based, Homo sapiens; conditions: Homo sapiens, LC4-1;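 further: growth inhibition of LC4-1 cells, read out with a cell viability assay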
Description: SANGER: Inhibition of human LC4-1 cell growth in a cell viability assay.

[23] = tested on: MDA-MB-134-VI; test: cells; assay type: functional, cell-based, Homo sapiens; conditions: Homo sapiens, MDA-MB-134-VI
Description: SANGER: Inhibition of human MDA-MB-134-VI cell growth in a cell viability assay.

[24] = tested on: MDA-MB-415; test: cells; assay type: functional, cell-based; conditions: Homo sapiens
[25] = tested on: MHH-CALL-2; test: cells; assay type: functional, cell-based, Homo sapiens; conditions: Homo sapiens, MHH-CALL-2;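 further: growth inhibition of the cell line, read out in a cell viability assay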
Description: SANGER: Inhibition of human MHH-CALL-2 cell growth in a cell viability assay.

[26] = tested on: NB1; test: cells; assay type: functional, cell-based, Homo sapiens; conditions: Homo sapiens, NB1
Description: SANGER: Inhibition of human NB1 cell growth in a cell viability assay.

[27] = tested on: NB12; test: cells; assay type: functional, cell-based; conditions: Homo sapiens;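 further: growth inhibition of human NB12 cells, read out by a cell viability assay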
Description: SANGER: Inhibition of human NB12 cell growth in a cell viability assay.

[28] = tested on: NCI-H1623; test: cells; assay type: functional, cell-based; conditions: Homo sapiens;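 further: cell viability assay used as the read-out for growth inhibition of NCI-H1623 cells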
Description: SANGER: Inhibition of human NCI-H1623 cell growth in a cell viability assay.

[29] = tested on: NCI-H1703; test: cells; assay type: functional, cell-based; conditions: Homo sapiens;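 further: growth inhibition of NCI-H1703 cells, read out via a cell viability assay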
Description: SANGER: Inhibition of human NCI-H1703 cell growth in a cell viability assay.

[30] = tested on: NCI-H2122; test: cells; assay type: functional, cell-based; conditions: Homo sapiens;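 further: growth inhibition of the cells, read out with a cell viability assay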
Description: SANGER: Inhibition of human NCI-H2122 cell growth in a cell viability assay.

[31] = tested on: NCI-H727; test: cells; assay type: functional, cell-based; conditions: Homo sapiens;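 further: growth inhibition of human NCI-H727 cells, read out with a cell viability assay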
Description: SANGER: Inhibition of human NCI-H727 cell growth in a cell viability assay.

[32] = tested on: NY; test: cells; assay type: functional, cell-based; conditions: Homo sapiens
Description: SANGER: Inhibition of human NY cell growth in a cell viability assay.

[33] = tested on: OE19; test: cells; assay type: functional, cell-based; conditions: Homo sapiens;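 further: growth inhibition of OE19 cells, measured through a cell viability read-out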
Description: SANGER: Inhibition of human OE19 cell growth in a cell viability assay.

[34] = tested on: RPMI 8402; test: SANGER: Inhibition of human RPMI-8402 cell growth in a cell viability assay.; assay type: functional, cell-based; conditions: Homo sapiens, RPMI 8402
[35] = tested on: SF-295; test: cells; assay type: functional, cell-based; conditions: Homo sapiens;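 further: growth inhibition of SF-295 cells, read out with a cell viability assay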
Description: SANGER: Inhibition of human SF295 cell growth in a cell viability assay.

[36] = tested on: SJRH30; test: cells; assay type: functional, cell-based; conditions: Homo sapiens;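 further: growth inhibition of human SJRH30 cells, read out with a cell viability assay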
Description: SANGER: Inhibition of human SJRH30 cell growth in a cell viability assay.

[37] = tested on: SK-MEL-24; test: cells; assay type: functional, cell-based; conditions: Homo sapiens;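 further: growth inhibition read out by a cell viability assay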
Description: SANGER: Inhibition of human SK-MEL-24 cell growth in a cell viability assay.

[38] = tested on: SK-MEL-28; test: cells; assay type: functional, cell-based; conditions: Homo sapiens;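 further: growth inhibition of human SK-MEL-28 cells, read out with a cell viability assay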
Description: SANGER: Inhibition of human SK-MEL-28 cell growth in a cell viability assay.

[39] = tested on: SK-MEL-30; test: cells; assay type: functional, cell-based; conditions: Homo sapiens;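 further: growth inhibition of SK-MEL-30 cells, determined with a cell viability assay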
Description: SANGER: Inhibition of human SK-MEL-30 cell growth in a cell viability assay.

[40] = tested on: SK-N-AS; test: cells; assay type: functional, cell-based; conditions: Homo sapiens;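 further: growth inhibition of human SK-N-AS cells, measured with a cell viability assay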
Description: SANGER: Inhibition of human SK-N-AS cell growth in a cell viability assay.

[41] = tested on: SNU-423; test: cells; assay type: functional, cell-based; conditions: Homo sapiens
Description: SANGER: Inhibition of human SNU-423 cell growth in a cell viability assay.

[42] = tested on: SW1088; test: cells; assay type: functional, cell-based; conditions: Homo sapiens;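 further: growth inhibition of human SW1088 cells, read out by a cell viability assay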
Description: SANGER: Inhibition of human SW1088 cell growth in a cell viability assay.

[43] = tested on: SW948; test: cells; assay type: functional, cell-based; conditions: Homo sapiens;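 further: growth inhibition of SW948 cells, read out with a cell viability assay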
Description: SANGER: Inhibition of human SW948 cell growth in a cell viability assay.

[44] = tested on: SiHa; test: cells; assay type: functional, cell-based; conditions: Homo sapiens;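 further: Viability-based readout of growth inhibition in SiHa cells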
Description: SANGER: Inhibition of human SiHa cell growth in a cell viability assay.

[45] = tested on: TCC-SUP; test: cells; assay type: functional, cell-based; conditions: Homo sapiens;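 further: growth inhibition of TCC-SUP cells, read out with a cell viability assay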
Description: SANGER: Inhibition of human TCCSUP cell growth in a cell viability assay.

[46] = tested on: ABC-1; test: cells; assay type: functional, cell-based; conditions: Homo sapiens;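 further: growth inhibition of human ABC-1 cells, read out by a cell viability assay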
Description: SANGER: Inhibition of human ABC-1 cell growth in a cell viability assay.

[47] = tested on: AGS; test: cells; assay type: functional, cell-based; conditions: Homo sapiens;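 further: growth inhibition of AGS cells, determined with a cell viability assay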
Description: SANGER: Inhibition of human AGS cell growth in a cell viability assay.

[48] = tested on: AN3-CA; test: cells; assay type: functional, cell-based; conditions: Homo sapiens;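 further: growth inhibition of human AN3-CA cells measured by a cell viability assay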
Description: SANGER: Inhibition of human AN3-CA cell growth in a cell viability assay.

[49] = tested on: BHY; test: cells; assay type: functional, cell-based; conditions: Homo sapiens;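 further: cell growth inhibition read out by a viability assay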
Description: SANGER: Inhibition of human BHY cell growth in a cell viability assay.

[50] = tested on: C3A; test: cells; assay type: functional, cell-based; conditions: Homo sapiens;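 further: growth inhibition of C3A human cells, quantified with a cell viability readout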
Description: SANGER: Inhibition of human C3A cell growth in a cell viability assay.

[51] = tested on: CAL-54; test: cells; assay type: functional, cell-based; conditions: Homo sapiens;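 further: growth inhibition of CAL-54 cells, read out by a viability measurement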
Description: SANGER: Inhibition of human CAL-54 cell growth in a cell viability assay.

[52] = tested on: CAL-72; test: cells; assay type: functional, cell-based; conditions: Homo sapiens;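 further: cell viability assay measuring inhibition of proliferation in the CAL-72 cell line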
Description: SANGER: Inhibition of human CAL-72 cell growth in a cell viability assay.

[53] = tested on: UACC-62; test: cells; assay type: functional, cell-based; conditions: Homo sapiens;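 further: growth inhibition of human UACC-62 cells, read out by a cell viability assay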
Description: SANGER: Inhibition of human UACC-62 cell growth in a cell viability assay.

[54] = tested on: UMUC3; test: cells; assay type: functional, cell-based; conditions: Homo sapiens;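 further: growth inhibition of human UM-UC-3 cells, read out with a cell viability assay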
Description: SANGER: Inhibition of human UM-UC-3 cell growth in a cell viability assay.

[55] = tested on: WM-115; test: cells; assay type: functional, cell-based; conditions: Homo sapiens
Description: SANGER: Inhibition of human WM-115 cell growth in a cell viability assay.

[56] = tested on: YT; test: cells; assay type: functional, cell-based, Homo sapiens; conditions: Homo sapiens, YT
Description: SANGER: Inhibition of human YT cell growth in a cell viability assay.

[57] = tested on: CAMA-1; test: cells; assay type: functional, cell-based; conditions: Homo sapiens;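 further: growth inhibition of CAMA-1 cells, read out with a cell viability assay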
Description: SANGER: Inhibition of human CAMA-1 cell growth in a cell viability assay.

[58] = tested on: CESS; test: SANGER: Inhibition of human CESS cell growth in a cell viability assay.; assay type: functional, cell-based; conditions: Homo sapiens, CESS
[59] = tested on: CHL-1; test: cells; assay type: functional, cell-based; conditions: Homo sapiens;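 further: cell growth inhibition, read out with a cell viability assay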
Description: SANGER: Inhibition of human CHL-1 cell growth in a cell viability assay.

[60] = tested on: COLO-678; test: cells; assay type: functional, cell-based; conditions: Homo sapiens
Description: SANGER: Inhibition of human COLO-678 cell growth in a cell viability assay.

With `O=S(=O)(O)c1ccc2cc(/N=N/c3cc(S(=O)(=O)O)c4cccnc4c3O)ccc2c1` the IC50 [1] was over 16 µM, the IC50 [2] was over 16 µM and the IC50 [3] was over 16 µM. The IC50 [4] was over 16 µM, the IC50 [5] was over 16 µM and the IC50 [6] was over 16 µM. For the same molecule, the IC50 [7] was over 16 µM, the IC50 [8] was over 16 µM and the IC50 [9] was over 16 µM. The IC50 [10] was over 16 µM, the IC50 [11] was over 16 µM and the IC50 [12] was over 16 µM. It also gave an IC50 [13] of over 16 µM, an IC50 [14] of over 16 µM and an IC50 [15] of over 16 µM. For the same molecule, the IC50 [16] was over 16 µM, the IC50 [17] was over 16 µM and the IC50 [18] was over 16 µM. The IC50 [19] was over 16 µM, the IC50 [20] was over 16 µM and the IC50 [21] was over 16 µM. For the same molecule, the IC50 [22] was over 16 µM, the IC50 [23] was over 16 µM and the IC50 [24] was over 16 µM. The IC50 [25] was over 16 µM, the IC50 [26] was over 16 µM and the IC50 [27] was over 16 µM. It also gave an IC50 [28] of over 16 µM, an IC50 [29] of over 16 µM and an IC50 [30] of over 16 µM. It also gave an IC50 [31] of over 16 µM, an IC50 [32] of over 16 µM and an IC50 [33] of over 16 µM. The IC50 [34] was over 16 µM, the IC50 [35] was over 16 µM and the IC50 [36] was over 16 µM. For the same molecule, the IC50 [37] was over 16 µM, the IC50 [38] was over 16 µM and the IC50 [39] was over 16 µM. It also gave an IC50 [40] of over 16 µM, an IC50 [41] of over 16 µM and an IC50 [42] of over 16 µM. For the same molecule, the IC50 [43] was over 16 µM, the IC50 [44] was over 16 µM and the IC50 [45] was over 16 µM. For the same molecule, the IC50 [46] was over 16 µM, the IC50 [47] was over 16 µM and the IC50 [48] was 14.1 µM. The IC50 [49] was over 16 µM, the IC50 [50] was over 16 µM and the IC50 [51] was over 16 µM. For the same molecule, the IC50 [52] was over 16 µM, the IC50 [53] was over 16 µM and the IC50 [54] was over 16 µM. For the same molecule, the IC50 [55] was over 16 µM, the IC50 [56] was over 16 µM and the IC50 [57] was over 16 µM. It also gave an IC50 [58] of over 16 µM, an IC50 [59] of over 16 µM and an IC50 [60] of over 16 µM.
`COC(=O)[C@H](CCSC)NC(=O)c1ccc(NC[C@@H](N)CS)cc1-c1ccccc1` gave an IC50 [1] of over 1.02 µM, an IC50 [2] of over 1.02 µM and an IC50 [3] of over 1.02 µM. The IC50 [4] was over 1.02 µM, the IC50 [5] was over 1.02 µM and the IC50 [6] was over 1.02 µM. The IC50 [7] was over 1.02 µM, the IC50 [8] was over 1.02 µM and the IC50 [9] was over 1.02 µM. For the same molecule, the IC50 [10] was over 1.02 µM, the IC50 [11] was over 1.02 µM and the IC50 [12] was over 1.02 µM. The IC50 [13] was over 1.02 µM, the IC50 [14] was over 1.02 µM and the IC50 [15] was over 1.02 µM. For the same molecule, the IC50 [16] was over 1.02 µM, the IC50 [17] was over 1.02 µM and the IC50 [18] was over 1.02 µM. For the same molecule, the IC50 [19] was over 1.02 µM, the IC50 [20] was over 1.02 µM and the IC50 [21] was over 1.02 µM. For the same molecule, the IC50 [22] was over 1.02 µM, the IC50 [23] was over 1.02 µM and the IC50 [24] was over 1.02 µM. It also gave an IC50 [25] of over 1.02 µM, an IC50 [26] of over 1.02 µM and an IC50 [27] of over 1.02 µM. For the same molecule, the IC50 [28] was over 1.02 µM, the IC50 [29] was over 1.02 µM and the IC50 [30] was over 1.02 µM. For the same molecule, the IC50 [31] was over 1.02 µM, the IC50 [32] was over 1.02 µM and the IC50 [33] was over 1.02 µM. It also gave an IC50 [34] of over 1.02 µM, an IC50 [35] of over 1.02 µM and an IC50 [36] of over 1.02 µM. For the same molecule, the IC50 [37] was over 1.02 µM, the IC50 [38] was over 1.02 µM and the IC50 [39] was over 1.02 µM. It also gave an IC50 [40] of over 1.02 µM, an IC50 [41] of over 1.02 µM and an IC50 [42] of over 1.02 µM. It also gave an IC50 [43] of over 1.02 µM, an IC50 [44] of over 1.02 µM and an IC50 [45] of over 1.02 µM. For the same molecule, the IC50 [46] was over 1.02 µM, the IC50 [47] was over 1.02 µM and the IC50 [48] was over 1.02 µM. The IC50 [49] was over 1.02 µM, the IC50 [50] was over 1.02 µM and the IC50 [51] was over 1.02 µM. It also gave an IC50 [52] of over 1.02 µM, an IC50 [53] of over 1.02 µM and an IC50 [54] of over 1.02 µM. For the same molecule, the IC50 [55] was over 1.02 µM, the IC50 [56] was over 1.02 µM and the IC50 [57] was over 1.02 µM. It also gave an IC50 [58] of over 1.02 µM, an IC50 [59] of over 1.02 µM and an IC50 [60] of over 1.02 µM.
